Series [1] in a line: pKa determination from emission intensity versus pH. Format: physicochemical. Conditions: H2O:DMSO (99:1), 10^–5 M, 25 °C. From the text: Ir-H and Ru-H are susceptible to deprotonation in aqueous media due to the presence of the acidic −COOH group. In fact, the actual protonation state of these complexes at the different physiological pH values defines their global charge and correspondingly influences their solubility, their photophysical properties, and their cellular uptake.[45]−[47] Thus, the pKa values of Ir-H and Ru-H in their excited states were experimentally determined by monitoring the variations of their emission intensity at specific wavelengths versus different pH values and fitting the data (Iem,λ/pH) to a sigmoidal equation. In good agreement with similar complexes reported in the literature,[45],[46] there was a gradual decrease in the emission intensity of Ir-H and Ru-H with decreasing pH (Figures 4 and S50). […] These values can be considered as an acceptable approximation to the values of the respective ground states. Therefore, we concluded that Ir-H and Ru-H adopt their deprotonated zwitterionic forms in the whole range of physiological pHs. This means that Ir-H assumes a zwitterionic neutral form, while Ru-H adopts a zwitterionic monocationic structure. In both cases, there is charge separation, and as a result, we predict that the cellular uptake ability of these complexes could be reduced, in comparison to that of their relatives Ir-Me and Ru-Me.
Figure 4 pKa determination. […]

Series [2] is described as follows: Emission and photophysical properties. Format: physicochemical. Conditions: H2O:DMSO (99:1), 25 °C, nitrogen atmosphere; for λem: λex 405 nm (Ir) or 450 nm (Ru). As to the method:
The emission spectra of the metal complexes in deoxygenated solutions of H2O:DMSO (99:1, v:v, 10^–5 M) were recorded at 25 °C, using λex of 405 nm for Ir-Me/Ir-H and λex of 450 nm for Ru-Me/Ru-H (Figure 3). […] Moreover, Ir-Me/Ru-Me featured lower emission intensities compared to Ir-H/Ru-H, respectively.
The excited state lifetimes (τ) and the photoluminescence quantum yields were also determined for the new metal complexes (Table 2). […] These values compare well with those of similar complexes and are compatible with a triplet nature for the emissive states. The photoluminescence quantum yields (ΦPL) of Ir(III)/Ru(II) were very low with values ranging from 1.1 to 4.13%.
All synthetic manipulations for Ir(III) and Ru(II) complexes were carried out under an atmosphere of dry, oxygen-free nitrogen using standard Schlenk techniques. The solvents were dried and distilled under a nitrogen atmosphere before use. Elemental analyses were performed with a Thermo Fisher Scientific EA Flash 2000 Elemental Microanalyzer. UV–vis absorption was measured in a Jasco V-750 UV–visible spectrophotometer. Fluorescence steady-state and lifetime measurements were performed in an FLS980 (Edinburgh Instruments) fluorimeter with Xenon Arc Lamp 450 W and TCSPC laser, respectively. Photoluminescence quantum yields was determined by using FLS980 (Edinburgh Instruments) with Xenon Arc Lamp 450 W and Red PMT Sphere as a detector. HR-ESI(+) mass spectra were recorded with an Agilent LC-MS system (1260 Infinity LC/6545 Q-TOF MS spectrometer) using dichloromethane (DCM) as a sample solvent and H2O (0.1% formic acid)/MeOH (0.1% formic acid) and 30:70 as the mobile phase. The experimental m/z values are expressed in Da and were compared with the m/z values for monoisotopic fragments. […] Chemical shift values (δ) are reported in ppm and coupling constants (J) in hertz. The splitting of proton resonances in the reported ^1H NMR data is defined as s = singlet, d = doublet, t = triplet, q = quartet, m = multiplet, and bs = broad singlet. 2D NMR spectra were recorded using standard pulse sequences. All NMR data processing was carried out using MestReNova version 10.0.2. […]
an integrating sphere. For the determination of the luminescence lifetime, the fluorescence decay was measured on a FLS980 spectrofluorometer equipped with a TSCPC laser (Ir(III) complexes: λ ex = 405 nm; Ru(II) complexes: λ ex = 450 nm) and a REDPMT detector. The F980 spectrometer operating software was used to collect and process luminescence lifetime data. […]
Photocatalytic oxidation of NADH. […]
A decrease in the absorption band with maxima at 338 nm was considered to confirm the photocatalytic oxidation of NADH into NAD+. […]
Both phases were then separated. Next, approximately 0.1 mg of the corresponding photosensitizer was dissolved in 1 mL of PBS-saturated n-octanol. Subsequently, 1 mL of octanol-saturated PBS was added, and the mixture was stirred vigorously at room temperature for 24 h. The two layers were separated carefully, and the absorbance of each layer was determined at the respective local maximum located around 425 nm. The log P oct/PBS values were determined as follows: […]

Molecules are shown by their SMILES. “And” between values parts separate entries of the source, which are not always exact repeats. Identical values can stand only once.

From article PMC11483813, “Bombesin-Targeted Delivery of β-Carboline-Based Ir(III) and Ru(II) Photosensitizers for a Selective Photodynamic Therapy of Prostate Cancer” (Inorganic Chemistry, 2024) come the findings set out here.

Consider `Cn1c2ccccc2c2ccnc(-c3ccc(/C=C/C(=O)O)cn3)c21.[Cl-].[Cl-].[Ru+2].c1ccc(-c2ccccn2)nc1.c1ccc(-c2ccccn2)nc1` [Ru-H], for which, in series [1], the “pKa (excited state)” value is on record as 4.51. In series [2], the ΦPL was found to be 3.13%; the “τ [contribution (%)], first or only component” value is 186 ns; the λem came out at 688 nm.
Consider `COC(=O)/C=C/c1ccc(-c2nccc3c4ccccc4n(C)c23)nc1.[Cl-].[Ir+3].[c-]1ccccc1-c1ccccn1.[c-]1ccccc1-c1ccccn1` [Ir-Me], for which, in series [2], the ΦPL turned out to be 3.50%; the “τ [contribution (%)], first or only component” value is 2 ns and 2 [20] ns; the “τ [contribution (%)], second component” value was 93 ns and 93 [80] ns; the λem is 676 nm.
Regarding `Cn1c2ccccc2c2ccnc(-c3ccc(/C=C/C(=O)O)cn3)c21.[Cl-].[Ir+3].[c-]1ccccc1-c1ccccn1.[c-]1ccccc1-c1ccccn1` [Ir-H], the “pKa (excited state)” value in series [1] is 3.81. In series [2], the ΦPL stood at 4.13%; the “τ [contribution (%)], first or only component” value is 23 ns and 23 [51] ns; the “τ [contribution (%)], second component” value was 145 ns and 145 [49] ns; the λem was 651 nm.
